Values quoted from earlier work in patent US6316473A, “Two surfactant-containing medicinal composition” (Fujisawa Pharmaceutical Co., Ltd., priority 1997, dated 2001).

Details: stated as well known

## C=CC[C@@H]1/C=C(\C)C[C@H](C)C[C@H](OC)[C@H]2O[C@@](O)(C(=O)C(=O)N3CCCC[C@H]3C(=O)O[C@H](/C(C)=C/[C@@H]3CC[C@@H](O)[C@H](OC)C3)[C@H](C)[C@@H](O)CC1=O)[C@H](C)C[C@@H]2OC [FK506, 17-allyl-1,14-dihydroxy-12-[2-(4-hydroxy-3-methoxycyclohexyl)-1-methylvinyl]-23,25-dimethoxy-13,19,21,27-tetramethyl-11,28-dioxa-4-azatricyclo[22.3. 1.0 4,9]octacos-18-ene-2,3,10,16-tetraone]
  solubility in water: only sparingly soluble in water
